Source: ChEMBL document CHEMBL1201862, “PubChem BioAssay data set” (2004)
Calls of active or inactive are those of the source.

Columns and labels:
[1] = tested on: Candida albicans; experiment: Candida growth inhibition combined with fluconazole – CaCi-2 strain, Alamar Blue, dry powder, set 3, dose response (AID 488907); format: functional, organism-based
[2] = tested on: HEK293; experiment: HEK293T cell viability loss, resazurin readout – resazurin fluorescence, cytotoxicity control for NF-kB activator project, SAR follow-up (AID 493251); format: functional, cell-based; details: Homo sapiens
[3] = tested on: HEK293; experiment: SAR Analysis of small molecule inhibitors of B-cell specific antigen receptor-induced NF-kB activation in a HEK-293T cell line using a luminescence assay - Set 2. [Related pubchem assays (depositor defined):AID435022, AID435025, AID489021]; format: functional, cell-based; details: Homo sapiens
[4] = tested on: Jurkat; experiment: SAR Analysis of small molecule inhibitors of […] specific antigen receptor-induced NF-kB activation in a Jurkat cell line using a luminescence assay - Set 3. [Related pubchem assays (depositor defined):AID435022, AID435025, AID465]; format: functional, cell-based; details: Homo sapiens
[5] = target: Phospholipase D2 (Homo sapiens, UniProt O14939); experiment: cellular phospholipase D2 inhibition IC50 – cell-based, dose response (AID 602147); format: functional;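 further: cellular assay in HEK293 cells overexpressing GFP-tagged PLD2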
[6] = target: Phospholipase D1 (Homo sapiens, UniProt Q13393); experiment: cellular phospholipase D1 inhibition IC50 – cell-based, dose response (AID 602151); format: functional;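 further: cellular PLD1 assay in Calu-1 cells stimulated with PMA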
[7] = NIH-3T3 fibroblast cytotoxicity, dose response, cytotoxicity control, cell-based, fluorescence, Alamar Blue, secondary assay (AID 2327); format: functional;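 further: NIH-3T3 mouse fibroblasts cultured with fluconazole at 8 µg/mL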
[8] = fluconazole-exposed Candida albicans growth modulators – fluorescence, retest, confirmation (AID 2467); format: functional, cell-based
[9] = tested on: Jurkat; experiment: blockers of NF-kB activation in T cells – Jurkat, luciferase reporter, luminescence, B- and T-cell, dose response (AID 489004); format: functional, cell-based; details: Homo sapiens;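 further: NF-kB luciferase reporter Jurkat cells stimulated with PMA plus ionomycin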
[10] = alpha-synuclein stem-loop luciferase translation blockers – H4 neuroglioma cells, luminescence, confirmation (AID 1988); format: functional, cell-based
[11] = HEK-293T viability loss, compound-treated – cell-based, uHTS hits, cytotoxicity control for B/T-cell NF-kB inhibitor project, dose response (AID 489019); format: functional;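 further: IC50 reflects cytotoxicity as loss of cell viability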
[12] = luciferase reporter signal suppression in cells – H4 neuroglioma cells, luminescence, dose response (AID 1990); format: functional, cell-based
[13] = target: T1, Microphthalmia-associated transcription factor (Homo sapiens, UniProt O75030); experiment: reducers of TRPM1 reporter luminescence, concentration series – cell-based, SK-MEL-5, cherry-picked, set 3, MITF inhibitor project, dose response (AID 493073); format: functional;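 further: SK-MEL-5 melanoma cells with luciferase driven by the MITF target TRPM1 promoter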
T1 sequence (O75030 whole entry): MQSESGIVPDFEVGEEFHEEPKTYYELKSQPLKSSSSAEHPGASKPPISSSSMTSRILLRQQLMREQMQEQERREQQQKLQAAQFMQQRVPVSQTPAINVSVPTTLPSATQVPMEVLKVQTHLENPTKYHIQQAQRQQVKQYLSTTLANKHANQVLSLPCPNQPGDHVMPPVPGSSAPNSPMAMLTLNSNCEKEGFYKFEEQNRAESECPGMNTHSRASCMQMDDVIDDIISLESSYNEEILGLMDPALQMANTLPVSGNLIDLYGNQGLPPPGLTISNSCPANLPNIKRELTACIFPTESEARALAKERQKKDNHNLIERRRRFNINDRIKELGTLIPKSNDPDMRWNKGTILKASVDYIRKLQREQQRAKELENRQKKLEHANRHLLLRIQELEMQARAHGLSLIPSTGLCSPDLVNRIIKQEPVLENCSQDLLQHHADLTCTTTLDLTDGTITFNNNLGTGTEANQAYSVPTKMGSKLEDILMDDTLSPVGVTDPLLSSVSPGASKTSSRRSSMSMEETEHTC

[14] = Luminescence Cell-Based Dose Response HTS to Identify Inhibitors of 5'UTR Stem-Loop Driven Prion Protein mRNA Translation in H4 Neuroglioblastoma Cells. [Related pubchem assays: 1827 (Project Summary), 1813 (Primary HTS)]; format: functional
[15] = viability of PTEN-deleted HCT116 cells – cell-based, HCT116 PTEN knockout, dose response (AID 1047); format: functional;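 further: HCT116 colon tumor cells with PTEN knocked out; cells exposed to compound for 60 hours before readout; potency for loss of cell viability measured by luminescence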
[16] = tested on: A-375; experiment: MITF: Counter assay: A375 proliferation Measured in Cell-Based System Using Plate Reader - 2084-03_Inhibitor_Dose_DryPowder_Activity. [Related pubchem assays (depositor defined):AID488944]; format: functional; details: Homo sapiens
[17] = blockers of HIV-1 ZM109 envelope-driven cell-cell fusion – HeLa effector, CEM target cells, luciferase, cherry-pick, dose response (AID 652058); format: functional, cell-based;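 further: luciferase signal from HIV-1 Env mediated cell-cell fusion of effector and target cells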
[18] = viability loss in CEM21 cells – cell-based, CellTiter-Glo luminescence, cherry-picked, cytotoxicity control for viral fusion inhibitor project, dose response (AID 652042); format: functional;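 further: potency for signal decrease meaning cytotoxicity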
[19] = HIV-1 AD8 envelope cell-cell fusion blockers – cherry-pick, dose response (AID 652062); format: functional, cell-based;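 further: luciferase signal from cell-cell fusion driven by HIV-1 clade B AD8 Env; potency is for inhibitors of fusion seen as a drop in luminescence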
[20] = viability of HCT116 lacking mutant beta-catenin – cell-based, human colon tumor, dose response (AID 1045); format: functional;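 further: HCT116 colon tumor cells with beta catenin knocked out; cells exposed to compound for 60 hours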
[21] = tested on: INS1; experiment: INS-1E survival protection against cytokine death – cell-based, luminescence, retest, dose response (AID 449756); format: functional;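 further: cell death triggered by IL-1 beta plus TNF-alpha plus IFN-gamma mixture; protective hits raise ATP signal compared with cytokine alone wells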
[22] = blockers of HIV-1 envelope-mediated cell-cell fusion – cherry-pick, dose response (AID 652057); format: functional, cell-based

Chain of Phospholipase D2 (O14939 whole entry): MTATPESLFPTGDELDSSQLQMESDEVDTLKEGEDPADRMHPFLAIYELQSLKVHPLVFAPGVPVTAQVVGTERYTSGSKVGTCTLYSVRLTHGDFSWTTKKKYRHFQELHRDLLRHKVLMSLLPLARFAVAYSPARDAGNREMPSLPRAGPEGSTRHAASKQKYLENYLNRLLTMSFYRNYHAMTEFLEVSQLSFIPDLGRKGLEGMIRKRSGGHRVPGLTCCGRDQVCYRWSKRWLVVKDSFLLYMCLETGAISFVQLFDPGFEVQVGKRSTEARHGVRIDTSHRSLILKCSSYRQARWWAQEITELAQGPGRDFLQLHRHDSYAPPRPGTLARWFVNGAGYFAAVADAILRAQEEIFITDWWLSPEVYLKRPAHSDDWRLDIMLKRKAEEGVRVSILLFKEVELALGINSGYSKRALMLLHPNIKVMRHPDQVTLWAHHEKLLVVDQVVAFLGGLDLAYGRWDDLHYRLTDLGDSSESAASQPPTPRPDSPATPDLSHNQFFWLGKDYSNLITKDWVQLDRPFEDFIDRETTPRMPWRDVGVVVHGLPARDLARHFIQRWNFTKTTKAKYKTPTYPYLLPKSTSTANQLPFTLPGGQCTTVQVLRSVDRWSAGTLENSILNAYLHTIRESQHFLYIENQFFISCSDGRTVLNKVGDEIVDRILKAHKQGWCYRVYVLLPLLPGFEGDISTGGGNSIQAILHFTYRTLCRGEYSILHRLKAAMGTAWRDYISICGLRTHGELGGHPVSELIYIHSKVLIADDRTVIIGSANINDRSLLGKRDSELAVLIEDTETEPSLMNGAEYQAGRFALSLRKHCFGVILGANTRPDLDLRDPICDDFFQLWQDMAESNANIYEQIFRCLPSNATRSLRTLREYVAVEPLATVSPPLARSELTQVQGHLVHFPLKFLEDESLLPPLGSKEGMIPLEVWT
Chain of Phospholipase D1 (Q13393 whole entry): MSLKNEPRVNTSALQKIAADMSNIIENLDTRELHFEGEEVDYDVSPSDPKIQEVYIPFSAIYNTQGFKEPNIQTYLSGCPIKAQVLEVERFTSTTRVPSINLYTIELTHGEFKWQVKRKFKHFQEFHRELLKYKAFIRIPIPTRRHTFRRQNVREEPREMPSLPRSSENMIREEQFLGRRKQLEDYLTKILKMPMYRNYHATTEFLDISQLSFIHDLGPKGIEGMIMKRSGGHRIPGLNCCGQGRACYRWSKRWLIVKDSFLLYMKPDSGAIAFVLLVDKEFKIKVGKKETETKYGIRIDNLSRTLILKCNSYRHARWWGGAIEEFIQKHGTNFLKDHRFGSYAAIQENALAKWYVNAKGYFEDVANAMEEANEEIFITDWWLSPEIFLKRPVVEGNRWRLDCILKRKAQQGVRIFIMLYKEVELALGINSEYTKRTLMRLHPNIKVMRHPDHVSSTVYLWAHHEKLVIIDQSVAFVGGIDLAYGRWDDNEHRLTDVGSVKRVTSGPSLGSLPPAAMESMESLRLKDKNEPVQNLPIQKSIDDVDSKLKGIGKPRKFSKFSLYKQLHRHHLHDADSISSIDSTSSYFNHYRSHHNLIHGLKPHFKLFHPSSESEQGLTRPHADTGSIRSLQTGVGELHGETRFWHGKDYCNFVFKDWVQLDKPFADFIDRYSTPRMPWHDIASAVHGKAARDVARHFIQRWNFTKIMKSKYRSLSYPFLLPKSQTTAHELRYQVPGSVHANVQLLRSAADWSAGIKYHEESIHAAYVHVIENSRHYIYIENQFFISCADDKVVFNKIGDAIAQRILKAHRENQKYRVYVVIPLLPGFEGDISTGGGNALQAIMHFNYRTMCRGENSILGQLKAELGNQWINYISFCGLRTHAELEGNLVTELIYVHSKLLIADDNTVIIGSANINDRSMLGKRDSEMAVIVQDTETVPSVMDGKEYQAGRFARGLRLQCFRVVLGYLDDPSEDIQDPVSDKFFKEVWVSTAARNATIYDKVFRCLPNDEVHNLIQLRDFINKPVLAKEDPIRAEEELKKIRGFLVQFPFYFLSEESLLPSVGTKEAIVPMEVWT

In the case of `O=C(C1CCCCC1)N1CCN(c2ccccn2)CC1`, the AC50 [1] is reported as 0.398 µM (active).

In the case of `CCOc1ccc(-c2nc(CSCC(=O)NCc3cccnc3)c(C)o2)cc1`, the IC50 [2] is reported as 65 µM (inactive), the IC50 [3] is reported as 24.2 µM (inactive) and the IC50 [4] is reported as 72.6 µM (inactive).

With `CC(C)[C@@H](CN1CCC2(CC1)C(=O)NCN2c1ccccc1)NC(=O)c1cnc2ccccc2c1` the IC50 [5] was 0.25 µM (active) and the IC50 [6] was 0.09 µM (active).

In the case of `COc1cc([N+](=O)[O-])cc(/C=N/NC(=O)c2ccc(NC(=O)c3ccc(C)cc3)cc2)c1O`, the EC50 [7] is reported as 1.01 µM (inconclusive), the EC50 [8] is reported as 1.49 µM (active) and the IC50 [9] is reported as 6.36 µM (active). For the same compound, the EC50 [10] was 1.88 µM (active), the IC50 [11] was > 80 µM (inactive) and the EC50 [12] was 2.62 µM (active). For the same compound, the AC50 [13] was 1.55 µM (active) and the EC50 [14] was 2.62 µM (active).

With `CC1CCC(C(C)C)C(OC(=O)Cn2c(-c3ccccc3)[n+](C)c3ccccc32)C1` (centres undefined) the EC50 [15] was 3.06 µM (active), the AC50 [16] was 41.3 µM (active) and the AC50 [17] was 4.62 µM (active). The AC50 [18] was 8.36 µM (active), the AC50 [19] was 5.44 µM (active) and the AC50 [13] was 2.37 µM (active). For the same compound, the EC50 [20] was 2.97 µM (active), the AC50 ([21]; Rattus norvegicus, INS1) was 3.2 µM (active) and the AC50 ([21]; ins1) was 2.71 µM (active). For the same compound, the AC50 [22] was 6.82 µM (active).
